{
  "source": "patent US10662481B2",
  "about": "“Methods for predicting response to HDACi/DNMTi combination in multiple myeloma” (INSERM (INSTITUT NATIONAL DE LA SANTÉ ET DE LA RECHERCHE …, priority 2014, dated 2020)",
  "type_in_all_cases": "cell-based, human",
  "conditions_in_all_cases": "0.5 μM decitabine, mean ± SD of viable cells, 3 experiments",
  "key": {"XG-20": {"test_system": "XG-20", "assay": "Cell viability of HMCLs by trypan blue exclusion (XG-20)"}, "XG-7": {"test_system": "XG-7", "assay": "Cell viability of HMCLs by trypan blue exclusion (XG-7)"}, "XG-5": {"test_system": "XG-5", "assay": "Cell viability of HMCLs by trypan blue exclusion (XG-5)"}, "LP1": {"test_system": "LP1", "assay": "Cell viability of HMCLs by trypan blue exclusion (LP1)"}, "XG-6": {"test_system": "XG-6", "assay": "Cell viability of HMCLs by trypan blue exclusion (XG-6)"}},
  "data": [
    {"smiles": "Nc1ncn([C@H]2C[C@H](O)[C@@H](CO)O2)c(=O)n1", "note": "[5-aza, 5-aza-2′-deoxycytidine]", "values": [
      {"measurement": "Cell viability (%) Day 3 5-aza", "setting": "XG-20", "value": "91 ± 3", "unit": "%"},
      {"measurement": "Cell viability (%) Day 3 5-aza", "setting": "XG-7", "value": "90 ± 2", "unit": "%"},
      {"measurement": "Cell viability (%) Day 3 5-aza", "setting": "XG-5", "value": "65 ± 5", "unit": "%"},
      {"measurement": "Cell viability (%) Day 3 5-aza", "setting": "LP1", "value": "91 ± 2", "unit": "%"},
      {"measurement": "Cell viability (%) Day 3 5-aza", "setting": "XG-6", "value": "90 ± 1", "unit": "%"}
    ]}
  ]
}
